Legend:
[1] = tested on: acute leukemia cell lines; assay: Cell viability / proliferation in various acute leukemia cell lines; type: cell-based, human; details: after 7 days of treatment
Procedure: (§1) Human leukemia cells were plated at 1×10^5 cells/ml in 24-well plates, treated with 0.25% DMSO or compounds and cultured at 37° C. for 7-14 days. Every four days, the volume corresponding to 1×10^5 cells of DMSO-treated cells was spun down and resuspended in fresh media with fresh compound. At day 0 and each four day interval, 100 μl aliquots of the cell suspension were transferred to 96-well plates in quadruplicates. The quadruplicate samples were incubated for 3-4 days at 37° C., and then an MTI cell proliferation assay kit (Roche) was used to measure viable cells. Absorbance was read at 570 nm using a PHERAstar (BMG) microplate reader.

[2] = tested on: MLL fusion target genes in MV4:11 MLL leukemia cell line; assay: Quantitative RT-PCR gene expression in MV4:11 cells; type: cell-based, human; details: after 7 days of treatment
Procedure: (§2) Total RNA was extracted from cells using the RNeasy mini kit (QIAGEN), and then 100-2000 ng of total RNA was reverse transcribed using the High Capacity cDNA Reverse Transcription Kit (Applied Biosystems) according to the manufacturer's protocol. Real-time PCR was performed using a CFX96 Real-Time PCR Detection System (Biorad). TaqMan Gene Expression Master Mix and TaqMan Gene Expression Assays were purchased from Thermo Fisher. Relative quantification of each gene transcript was carried out using the ΔΔCt method as described in the Biorad Real-Time PCR Applications Guide.

[3] = tested on: acute leukemia cell lines; assay: Differentiation of leukemia cells (Cytospin/Wright-Giemsa staining); type: cell-based, human; details: after 7 days of treatment
Procedure: 1×10^5 of leukemia cells treated with compounds or DMSO were harvested and placed in a Shandon EZ Single Cytofunnel (Thermo Fisher). Samples were centrifuged at 600 rpm for 5 min. The slides were air dried before staining with a Hema-3 kit (Thermo Fisher).

[4] = target: T1, ASH1L (Homo sapiens, UniProt Q9NR48); assay: Western blot of ASH1L degradation in HeLa cells; type: cell-based
T1 construct: endogenous in cells; host or cells: HeLa cells
Procedure: The 2.5×10^5 HeLa cells were treated with compounds for 24 h followed by the lysis in the RIPA buffer. The protein samples were loaded and run in the 3-8% Tris-acetate gel. After transferring proteins to the PVDF membrane, 5% bovine serum albumin solution was used for blocking for 2 h at room temperature. The membranes were incubated with the ASH1L-specific antibody (Bethyl A301-749A) at 4° C. overnight and subsequently with the anti-rabbit secondary antibody (Cell signaling technology, 7074S). The blots were detected by an ECL detection system (Amersham, RPN2236).

[5] = tested on: MV4:11; assay: Cell viability assay (MTT) in MV4:11 cells; type: cell-based; details: Homo sapiens, 168 h; MV4:11, after 7 days of treatment
Procedure: as §1

[6] = tested on: K562 control cell line; assay: Cell viability assay (MTT) in K562 control cell line; type: cell-based; details: Homo sapiens, 168 h, after 7 days of treatment
Procedure: as §1

[7] = tested on: MV4:11 xenotransplantation model; assay: In vivo efficacy in MV4:11 xenotransplantation model; details: MV4:11 xenotransplantation model in mice, 25 mg/kg, i.p., q.d., 17 days of treatment
Source text: Exemplary compounds disclosed herein, were used for in vivo studies in mice. Immunocompromised 8-10 week-old female NSG mice were used for in vivo efficacy studies in accordance with IACUC guidelines. Luciferase expressing human MV4:11 leukemia cells (MV4:11-luc) were engrafted intravenously via tail vein injection (1×10^7 cells/animal). Five days after transplantation mice were randomly assigned to a vehicle control or a compound treatment group (6-7 animals per group). Animals in each of the treatment groups were administered vehicle or compound A of the present disclosure by intraperitoneal (i.p.) injection. Treatment was continued for 17 days. Body weight was measured daily, while mean luminescence signal was measured in all mice at days 10 and 17 after initiating the treatment. […]

[8] = tested on: KOPN8; assay: Cell viability assay (MTT) in KOPN8 cells; type: cell-based; details: Homo sapiens, KOPN-8, 168 h; KOPN8, after 7 days of treatment
Procedure: as §1

[9] = tested on: MOLM13; assay: Cell viability assay (MTT) in MOLM13 cells; type: cell-based; details: Homo sapiens, MOLM-13, 168 h; MOLM13, after 7 days of treatment
Procedure: as §1

[10] = tested on: MLL fusion protein target genes in MOLM13 leukemia cell line; assay: Quantitative RT-PCR gene expression in MOLM13 cells; type: cell-based, human; details: after 6 days of treatment at 150 nM
Procedure: as §2

| Degradation of ASH1L ([4]; FIG. 1, Western blot) | GI50 [5] [nM] | GI50 [6] [nM] | Degradation of ASH1L ([4]; HeLa cells, after 24 h of treatment, FIG. 4 Panel A) | GI50 [9] [nM] | Compound | Cell proliferation / viability [1] | Expression of MLL fusion target genes [2] | Differentiation [3] | Leukemia progression in vivo (bioluminescence signal, hCD45+ cells) [7] | GI50 [8] [nM] | Expression of MLL fusion protein target genes [10] |
| --- | --- | --- | --- | --- | --- | --- | --- | --- | --- | --- | --- |
| Degradation of Ash1L induced | – | – | – | – | NC(=S)c1cccc(-c2cn(CC(CF)CF)c3cc(NC(=O)CCOCCOCCOCCOc4cccc5c4C(=O)N(C4CCC(=O)NC4=O)C5=O)ccc23)c1 (stereo not drawn) [Compound 1, N-(3-(3-carbamothioylphenyl)-1-(3-fluoro-2-(fluoromethyl)propyl)-1H-indol-6-yl)-3-(2-(2-(2-((2-(2,6-dioxopiperidin-3-yl)-1,3-dioxoisoindolin-4-yl)oxy)ethoxy)ethoxy)ethoxy)propanamide] | selectively blocks proliferation | downregulates expression of MLL fusion target genes | induces differentiation | – | – | – |
| – | 62 | > 6000 | induces degradation of ASH1L | 52 | NC(=S)c1cccc(-c2cn(C3CCC(F)(F)CC3)c3cc(NC(=O)CCCCCCCCNC(=O)COc4cccc5c4C(=O)N(C4CCC(=O)NC4=O)C5=O)ccc23)c1 (stereo not drawn) [Compound 24, N-(3-(3-carbamothioylphenyl)-1-(4,4-difluorocyclohexyl)-1H-indol-6-yl)-9-(2-((2-(2,6-dioxopiperidin-3-yl)-1,3-dioxoisoindolin-4-yl)oxy)acetamido)nonanamide] | inhibits viability | – | – | blocks leukemia progression | 103 | downregulates the expression of MLL fusion protein target genes |

Reference: patent US12285490B2, “ASH1L degraders and methods of treatment therewith” (The Regents of the University of Michigan, priority 2017, dated 2025)
